Like-named read-outs stand apart in the source and are kept apart here.
What was measured:
HIV-1BaL = test: p24 endpoint antiviral assay in primary human CD4+ T-lymphocytes; format: cell-based; conditions: Human immunodeficiency virus 1, CD4+ T, read-out: mean EC50
Cytotoxicity assay [1] = format: cell-based; conditions: human, MT-4 cells
Cytotoxicity assay [2] = format: cell-based; conditions: human, Huh-7 cells
HIV-1 CA mutants = format: cell-based; conditions: mutant/WT EC50 ratio
Stimulated PBMCs = test: Cytotoxicity assay; format: cell-based, human; conditions: PBMCs
Cytotoxicity assay [3] = format: cell-based, human; conditions: human, stimulated PBMCs
[4] = test system: HIV-1 recombinant strains resistant to NRTIs, NNRTIs, INSTIs, PIs or MIs; format: cell-based
CA hexamer = CA hexamer (Human immunodeficiency virus type 1 group M subtype B, UniProt P12493, A146C/E177C/M317A/W316A); test: Surface plasmon resonance binding assay; parameters: species or system HIV-1
Cytotoxicity assay [5] = format: cell-based; conditions: human, monocyte-derived macrophages
Cytotoxicity assay [6] = format: cell-based; conditions: human, primary CD4+ T-lymphocytes
[7] = test system: single-cycle reporter HIV-1; test: microbe, parasite or virus in culture; format: cell-based
Cytotoxicity assay [8] = format: cell-based; conditions: human, Gal-HepG2 cells
HIV-1 CA protein = format: biochemical; conditions: 20 μM CA, 2 M NaCl
[9] = Study GS-US-200-4072: pharmacokinetics in participants living with HIV; format: in vivo, human; conditions: for CD9 / paEC95 (mean), fold EC95 coverage on day 9: PLWH; for concentration at 9 day: both, human, plasma, sc
[10] = Study GS-US-200-4070: safety and tolerability in healthy participants; format: in vivo, human; conditions: for Acne / Any AE / Back pain / Dizziness / Headache / Injection site bruising / Injection site erythema / Injection site induration / Injection site nodule / Injection site pain / Injection site pruritus / Injection site swelling / Nausea / Oropharyngeal pain / Skin mass / Viral upper respiratory tract infection: healthy
CA hexamer_M66I = CA hexamer_M66I (Human immunodeficiency virus type 1 group M subtype B, UniProt P12493, A146C/E177C/M198I/M317A/W316A); test: Surface plasmon resonance binding assay; parameters: species or system HIV-1
HIV-1 DNA = test: Quantitation of HIV-1 DNA forms in infected MT-2 cells by PCR; conditions: GS-6207 at 1.25 nM
HIV-1IIIb = test: microbe, parasite or virus in culture; format: cell-based
Cytotoxicity assay [11] = format: cell-based; conditions: human, MRC-5 cells
HIV-1 capsid = test: Study GS-US-200-4072: HIV-1 resistance analyses; conditions: in vivo

In the case of `CC(C)(C#Cc1ccc(-c2ccc(Cl)c3c(NS(C)(=O)=O)nn(CC(F)(F)F)c23)c([C@H](Cc2cc(F)cc(F)c2)NC(=O)Cn2nc(C(F)(F)F)c3c2C(F)(F)[C@@H]2C[C@H]32)n1)S(C)(=O)=O` [GS-6207], the EC50 (HIV-1BaL) is reported as 0.032 nM, the CC50 (Cytotoxicity assay [1]) is reported as 24700 ± 18300 nM and the CC50 (Cytotoxicity assay [2]) is reported as > 44400 nM. For the same compound, the “Fold GS-6207 resistance” value (HIV-1 CA mutants; HIV-1 CA K70N) was 24, the “Fold GS-6207 resistance” value (HIV-1 CA mutants; HIV-1 CA L56I) was 239 and the “Fold GS-6207 resistance” value (HIV-1 CA mutants; HIV-1 CA M66I) was >3,226. The “Fold GS-6207 resistance” value (HIV-1 CA mutants; HIV-1 CA N74D) was 22, the “Fold GS-6207 resistance” value (HIV-1 CA mutants; HIV-1 CA Q67H) was 6 and the “Fold GS-6207 resistance” value (HIV-1 CA mutants; HIV-1 CA WT) was 1. For the same compound, the “therapeutic index (CC50/EC50)” value (Stimulated PBMCs) was > 1,000,000, the CC50 (Cytotoxicity assay [3]) was > 50000 nM and the Fold resistance ([4]; HIV-1 mutant 6TAMs (NRTI)) was 0.2 ± 0.1 (3). The Fold resistance ([4]; HIV-1 mutant E92Q+N155H (INSTI)) was 0.8 ± 0.4 (3), the Fold resistance ([4]; HIV-1 mutant E138K+Q148K (INSTI)) was 0.6 ± 0.3 (3) and the Fold resistance ([4]; HIV-1 mutant G48V+V82A+L90M (PI)) was 0.5 ± 0.2 (3). The Fold resistance ([4]; HIV-1 mutant G48V+V82S (PI)) was 0.4 ± 0.2 (3), the Fold resistance ([4]; HIV-1 mutant G140S+Q148R (INSTI)) was 0.8 ± 0.3 (3) and the Fold resistance ([4]; HIV-1 mutant I84V+L90M (PI)) was 0.3 ± 0.1 (3). For the same compound, the Fold resistance ([4]; HIV-1 mutant K65R (NRTI)) was 0.6 ± 0.2 (3), the Fold resistance ([4]; HIV-1 mutant K103N+Y181C (NNRTI)) was 0.6 ± 0.2 (3) and the Fold resistance ([4]; HIV-1 mutant L100I+K103N (NNRTI)) was 0.5 ± 0.2 (3). For the same compound, the Fold resistance ([4]; HIV-1 mutant M46I+I50V (PI)) was 0.7 ± 0.2 (3), the Fold resistance ([4]; HIV-1 mutant M184V (NRTI)) was 0.3 ± 0.3 (3) and the Fold resistance ([4]; HIV-1 mutant N155H+Q148R (INSTI)) was 1.2 ± 0.7 (3). For the same compound, the Fold resistance ([4]; HIV-1 mutant V7A in SP1 (MI)) was 0.8 ± 0.4 (8), the Fold resistance ([4]; HIV-1 mutant V230I in CA (MI)) was 0.7 ± 0.2 (6) and the Fold resistance ([4]; HIV-1 mutant Y188L (NNRTI)) was 0.5 ± 0.1 (3). The Kd (CA hexamer) was 0.24 ± 0.09 nM, the koff (CA hexamer; CA hexamer) was 1.4 ± 0.4 x 10^−5 s^−1 and the kon (CA hexamer; CA hexamer) was 6.5 ± 0.3 x 10^4 M^−1s^−1. The CC50 (Cytotoxicity assay [5]) was > 50000 nM, the CC50 (Cytotoxicity assay [6]) was > 50000 nM and the EC50 ([7]; Human immunodeficiency virus 1) was 0.025 nM. For the same compound, the EC50 ([7]; Human immunodeficiency virus 1, HEK-293T) was 0.439 nM, the EC50 ([7]; Human immunodeficiency virus 1, MT2) was 0.023 nM and the CC50 (Cytotoxicity assay [8]) was > 44400 nM. For the same compound, the “rate and extent of in vitro capsid assembly” value (HIV-1 CA protein) was “dose-dependent increase in the rate and extent of in vitro capsid assembly”, the “CD9 / paEC95 (mean), fold EC95 coverage on day 9” value ([9]; 20 mg SC) was 0.67 and the “CD9 / paEC95 (mean), fold EC95 coverage on day 9” value ([9]; 50 mg SC) was 1.14. For the same compound, the “CD9 / paEC95 (mean), fold EC95 coverage on day 9” value ([9]; 150 mg SC) was 3.33, the “CD9 / paEC95 (mean), fold EC95 coverage on day 9” value ([9]; 450 mg SC) was 9.87 and the concentration at 9 day ([9]; 20 mg) was 2.58 ng/mL. For the same compound, the concentration at 9 day ([9]; 50 mg) was 4.4 ng/mL, the concentration at 9 day ([9]; 150 mg) was 12.9 ng/mL and the concentration at 9 day ([9]; 450 mg) was 38.2 ng/mL. For the same compound, the Acne ([10]; 30 mg (n = 8)) was 0 n (%), the “Any AE” value ([10]; 30 mg (n = 8)) was 4 (50) n (%) and the Back pain ([10]; 30 mg (n = 8)) was 0 n (%). For the same compound, the Dizziness ([10]; 30 mg (n = 8)) was 0 n (%), the Headache ([10]; 30 mg (n = 8)) was 2 (25) n (%) and the Injection site bruising ([10]; 30 mg (n = 8)) was 0 n (%). For the same compound, the Injection site erythema ([10]; 30 mg (n = 8)) was 1 (13) n (%), the Injection site induration ([10]; 30 mg (n = 8)) was 0 n (%) and the Injection site nodule ([10]; 30 mg (n = 8)) was 0 n (%). For the same compound, the Injection site pain ([10]; 30 mg (n = 8)) was 0 n (%), the Injection site pruritus ([10]; 30 mg (n = 8)) was 1 (13) n (%) and the Injection site swelling ([10]; 30 mg (n = 8)) was 1 (13) n (%). For the same compound, the Nausea ([10]; 30 mg (n = 8)) was 1 (13) n (%), the Oropharyngeal pain ([10]; 30 mg (n = 8)) was 1 (13) n (%) and the Skin mass ([10]; 30 mg (n = 8)) was 0 n (%). For the same compound, the “Viral upper respiratory tract infection” value ([10]; 30 mg (n = 8)) was 0 n (%), the Acne ([10]; 100 mg (n = 8)) was 0 n (%) and the “Any AE” value ([10]; 100 mg (n = 8)) was 8 (100) n (%). The Back pain ([10]; 100 mg (n = 8)) was 0 n (%), the Dizziness ([10]; 100 mg (n = 8)) was 0 n (%) and the Headache ([10]; 100 mg (n = 8)) was 1 (13) n (%). For the same compound, the Injection site bruising ([10]; 100 mg (n = 8)) was 0 n (%), the Injection site erythema ([10]; 100 mg (n = 8)) was 5 (63) n (%) and the Injection site induration ([10]; 100 mg (n = 8)) was 0 n (%). The Injection site nodule ([10]; 100 mg (n = 8)) was 5 (63) n (%), the Injection site pain ([10]; 100 mg (n = 8)) was 3 (38) n (%) and the Injection site pruritus ([10]; 100 mg (n = 8)) was 0 n (%). The Injection site swelling ([10]; 100 mg (n = 8)) was 5 (63) n (%), the Nausea ([10]; 100 mg (n = 8)) was 0 n (%) and the Oropharyngeal pain ([10]; 100 mg (n = 8)) was 0 n (%). The Skin mass ([10]; 100 mg (n = 8)) was 0 n (%), the “Viral upper respiratory tract infection” value ([10]; 100 mg (n = 8)) was 0 n (%) and the Acne ([10]; 300 mg (n = 8)) was 0 n (%). The “Any AE” value ([10]; 300 mg (n = 8)) was 7 (88) n (%), the Back pain ([10]; 300 mg (n = 8)) was 2 (25) n (%) and the Dizziness ([10]; 300 mg (n = 8)) was 1 (13) n (%). The Headache ([10]; 300 mg (n = 8)) was 2 (25) n (%), the Injection site bruising ([10]; 300 mg (n = 8)) was 1 (13) n (%) and the Injection site erythema ([10]; 300 mg (n = 8)) was 6 (75) n (%). The Injection site induration ([10]; 300 mg (n = 8)) was 6 (75) n (%), the Injection site nodule ([10]; 300 mg (n = 8)) was 3 (38) n (%) and the Injection site pain ([10]; 300 mg (n = 8)) was 6 (75) n (%). For the same compound, the Injection site pruritus ([10]; 300 mg (n = 8)) was 1 (13) n (%), the Injection site swelling ([10]; 300 mg (n = 8)) was 1 (13) n (%) and the Nausea ([10]; 300 mg (n = 8)) was 1 (13) n (%). For the same compound, the Oropharyngeal pain ([10]; 300 mg (n = 8)) was 0 n (%), the Skin mass ([10]; 300 mg (n = 8)) was 1 (13) n (%) and the “Viral upper respiratory tract infection” value ([10]; 300 mg (n = 8)) was 0 n (%). For the same compound, the Acne ([10]; 450 mg (n = 8)) was 2 (25) n (%), the “Any AE” value ([10]; 450 mg (n = 8)) was 6 (75) n (%) and the Back pain ([10]; 450 mg (n = 8)) was 0 n (%). For the same compound, the Dizziness ([10]; 450 mg (n = 8)) was 1 (13) n (%), the Headache ([10]; 450 mg (n = 8)) was 0 n (%) and the Injection site bruising ([10]; 450 mg (n = 8)) was 0 n (%). The Injection site erythema ([10]; 450 mg (n = 8)) was 3 (38) n (%), the Injection site induration ([10]; 450 mg (n = 8)) was 2 (25) n (%) and the Injection site nodule ([10]; 450 mg (n = 8)) was 1 (13) n (%). For the same compound, the Injection site pain ([10]; 450 mg (n = 8)) was 3 (38) n (%), the Injection site pruritus ([10]; 450 mg (n = 8)) was 1 (13) n (%) and the Injection site swelling ([10]; 450 mg (n = 8)) was 0 n (%). The Nausea ([10]; 450 mg (n = 8)) was 0 n (%), the Oropharyngeal pain ([10]; 450 mg (n = 8)) was 0 n (%) and the Skin mass ([10]; 450 mg (n = 8)) was 1 (13) n (%). For the same compound, the “Viral upper respiratory tract infection” value ([10]; 450 mg (n = 8)) was 2 (25) n (%), the safety and tolerability ([10]; single SC 30 to 450 mg, healthy participants) was “generally safe and well tolerated” and the Kd (CA hexamer_M66I) was 60 nM. For the same compound, the koff (CA hexamer_M66I; CA hexamer_M66I) was 2.6 ± 0.3 x 10^−3 s^−1, the kon (CA hexamer_M66I; CA hexamer_M66I) was 6 ± 4 x 10^4 M^−1s^−1 and the “HIV cDNA synthesis (late RT products)” value (HIV-1 DNA) was “did not alter”. The “formation of 2-LTR circles” value (HIV-1 DNA) was “significantly reduced”, the “formation of integrated proviruses” value (HIV-1 DNA) was “significantly reduced” and the EC50 (HIV-1IIIb; Human immunodeficiency virus 1, MT4, read-out: mean EC50) was 0.105 nM. The EC95 (HIV-1IIIb; calculated from EC50 and Hill coefficient) was 0.23 nM, the CC50 (Cytotoxicity assay [11]) was > 44400 nM and the “decrease in phenotypic susceptibility” value (HIV-1 capsid) was 1.6 fold.

— paper PMC8188729 (Nature, 2020)
